Common to all, as to test: NCI anticancer screen, dose series, 48 h
The subject of experiment [1] is KM12 colon.
In experiment [2] the test system is IGROV1 ovarian.
The test system of experiment [3] is UACC-62 melanoma.
Experiment [4] deals with MDA-MB-231 breast.
Experiment [5] relates to HCT-116 colon.
Experiment [6] concerns HOP-62 NSCLC.
Experiment [7] relates to SK-MEL-5 melanoma.
For experiment [8], the system named is HL-60(TB) leukemia.
Experiment [9] concerns MDA-N.
The subject of experiment [10] is SNB-75 CNS.
The test system of experiment [11] is HT29 colon.
For experiment [12], the system named is HOP-92 NSCLC.
Experiment [13] deals with TK-10 renal.
Experiment [14] concerns NCI-H226 lung.
For experiment [15], the system named is ACHN renal.

“And” between values parts separate entries of the source, which are not always exact repeats. Equal values may be shown once.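 Growth conditions: 96-well plates. Treatment: test compound, 48 hours, 5 concentrations. Analysis: linear interpolation between bracketing concentrations; unreached endpoints set to highest concentration. Here, GI50 denotes the concentration required for 50% inhibition of growth. TGI marks complete inhibition of growth.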 Where a SMILES comes first, the peptide text is derived from it. The star is where a group is joined. Boc = CC(C)(C)OC(=O)*; OBn = c1ccc(CO*)cc1

Take `Cc1cn(C2CC(N=[N+]=[N-])C(C(=O)O)O2)c(=O)[nH]c1=O` (stereo unspecified): the TGI in experiment [1], in experiment [2], in [3], in experiment [4], in experiment [5] and in [6] was greater than 100 µM in each case. The TGI in experiment [7], in experiment [8], in experiment [9], in [10], in [11] and in experiment [12] was greater than 100 µM throughout. For the same molecule, the TGI in experiment [13], in experiment [14] and in experiment [15] was greater than 100 µM each time.
`Cc1n(-c2ccccc2)c2c([n+]1Cc1ccc([N+](=O)[O-])cc1)C(=O)c1ccccc1C2=O`: the TGI in experiment [1] stood at 6.54 µM; in experiment [2], 2.23 µM; in experiment [3], 3.74 µM; in experiment [4], 3.08 µM; in [5], 4.36 µM; in experiment [6] it was 16.6 µM. The TGI in [7] came to 3.29 µM; in experiment [8], 1.35 µM; in experiment [9] it was 3.16 µM; in experiment [10], 13.1 µM; in [11] it was 6.43 µM; in [12], 4.3 µM. The TGI in experiment [13] worked out at 19.3 µM; in experiment [14], 15.1 µM; in [15], 13.9 µM.
With `NS(=O)(=O)c1ccc(N=Nc2nc3[nH]cnc(=S)c3[nH]2)cc1`, the TGI in experiment [1] is greater than 100 µM; in [2] it was greater than 100 µM; in experiment [3], 8.72 µM; in [4], greater than 25.3 µM; in experiment [5], 16.3 µM; in experiment [6], greater than 51.1 µM. The TGI in experiment [7] was 24.8 µM; in experiment [8], 16.7 µM; in experiment [9], greater than 38.9 µM; in experiment [10], greater than 100 µM; in experiment [11] it was greater than 68.2 µM; in experiment [12], greater than 100 µM. Also, the TGI in experiment [13] is 19.3 µM; in experiment [14], greater than 76.5 µM; in [15], greater than 100 µM.
`NN/C(=N\S(=O)(=O)c1cccc2nsnc12)Nc1ccc(Cl)cc1`: the TGI in experiment [1], in [2], in experiment [3], in [4], in [5] and in [6] was greater than 100 µM each time. Moreover, the TGI in experiment [7], in experiment [8], in experiment [9], in experiment [10], in experiment [11] and in experiment [12] was greater than 100 µM each time. The TGI in experiment [13], in experiment [14] and in experiment [15] was greater than 100 µM in each case.
Take `COc1cc2c(cc1OC)CN1CCc3ccccc3CC1C2` (stereo unspecified): the TGI in [1], in experiment [2], in experiment [3], in experiment [4], in experiment [5] and in [6] was greater than 100 µM in each case. Further, the TGI in experiment [7], in experiment [8], in experiment [9], in [10], in [11] and in experiment [12] was greater than 100 µM throughout. Further, the figures for the TGI in experiment [13], in [14] and in [15] were 64.3 µM, greater than 100 µM and greater than 100 µM, respectively.
For the molecule `CC(C(=O)N1C(=O)N(C(=O)[C@H](C)C(O)c2ccccc2)[C@H](c2ccccc2)[C@H]1c1ccccc1)[C@@H](O)c1ccccc1` (stereo partly specified), the TGI in experiment [1] is greater than 100 µM; in [2] it was 64.9 µM; in [3], 51.1 µM; in [4], 48.9 µM; in experiment [5], greater than 100 µM; in experiment [6], greater than 100 µM. In addition, the TGI is 28.1 µM in experiment [7]; greater than 100 µM in [8]; 60.7 µM in experiment [9]; greater than 100 µM in [10]; greater than 100 µM in [11]; 83.3 µM in [12]. Moreover, the TGI in experiment [13], in experiment [14] and in experiment [15] was greater than 100 µM each time.
`O=C(Nn1c(-c2ccccc2)nc2ccccc2c1=O)c1ccc(O)cc1`: the TGI in experiment [1], in [2], in [3], in experiment [4], in [5] and in experiment [6] was greater than 100 µM in each case. Also, the TGI in [7], in experiment [8], in experiment [9], in [10], in [11] and in [12] was greater than 100 µM throughout. The TGI in [13], in experiment [14] and in [15] was greater than 100 µM throughout.
With `CC(C)C(NC(=O)CNC(=O)C1CCCN1C(=O)C(NC(=O)OC(C)(C)C)C(C)C)C(=O)NCC(=O)OCc1ccccc1` (stereo unspecified) (Boc-VPGVG-OBn; configuration not given here), the TGI in experiment [1], in experiment [2], in [3], in experiment [4], in experiment [5] and in experiment [6] was greater than 100 µM each time. Besides, the TGI in [7], in [8], in experiment [9], in experiment [10], in experiment [11] and in experiment [12] was greater than 100 µM each time. Further, the TGI in [13], in [14] and in experiment [15] was greater than 100 µM in each case. In [10], the GI50 was 35.3 µM and > 100 µM.
Turning to `COc1ccc(C(=O)C(CC2C(=O)CC(C)(C)C(C(=O)C(=O)Nc3c(C)cccc3C)C2=O)c2ccc(OC)cc2)cc1` (stereo unspecified), the TGI in experiment [1], in experiment [2], in experiment [3], in experiment [4], in experiment [5] and in experiment [6] was greater than 100 µM throughout. In addition, the TGI in experiment [7], in [8], in [9], in experiment [10], in experiment [11] and in [12] was greater than 100 µM in each case. In addition, the TGI in [13], in experiment [14] and in experiment [15] was greater than 100 µM each time.

Values taken from PubChem BioAssay (NCI).
